From patent publication US7939517B2, “1,4,6-androstatriene-3,17-dione (“ATD”) for therapeutic uses” (priority 2004, dated 2011)

Columns and labels:
aromatase enzyme [1] = target: T1, aromatase enzyme (Homo sapiens, UniProt P11511); settings: inhibitor binding to the aromatase enzyme; from "recent studies"; cited from earlier work
T1 sequence (P11511 1-503): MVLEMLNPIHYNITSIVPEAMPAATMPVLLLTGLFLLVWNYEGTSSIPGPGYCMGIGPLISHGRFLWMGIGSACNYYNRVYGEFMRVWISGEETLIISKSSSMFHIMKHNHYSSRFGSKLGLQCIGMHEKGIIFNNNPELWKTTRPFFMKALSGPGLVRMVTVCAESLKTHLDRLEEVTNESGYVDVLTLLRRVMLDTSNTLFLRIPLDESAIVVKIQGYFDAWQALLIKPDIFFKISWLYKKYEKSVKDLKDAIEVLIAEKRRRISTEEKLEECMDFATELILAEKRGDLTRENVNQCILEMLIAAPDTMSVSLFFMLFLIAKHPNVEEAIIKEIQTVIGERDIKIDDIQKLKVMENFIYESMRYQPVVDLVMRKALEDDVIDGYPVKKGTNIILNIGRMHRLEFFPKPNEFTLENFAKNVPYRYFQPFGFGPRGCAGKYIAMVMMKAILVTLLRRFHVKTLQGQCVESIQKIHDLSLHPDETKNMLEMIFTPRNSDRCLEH

aromatase enzyme [2] = target: T1, aromatase enzyme; assay: aromatase enzyme inhibition (Ki); type: biochemical
Description: ATD acts as a suicide substrate by irreversibly binding to the aromatase enzyme and shutting down its activity. Because it is a non-androgenic compound, ATD has fewer side effects associated with anabolic/androgenic steroid use. […] A lower Ki value means the inhibitor binds more tightly to the enzyme and yields greater potency. […] Because it is administered in smaller doses, costs of use of ATD may also be lower. The savings may be passed on to the consumer and/or provide greater profits to the manufacturer. Additionally, with oral or percutaneous/transdermal doses of 25 mg to 150 mg per day in men, ATD will cause a significant increase in endogenous androgen levels with little or no decrease in endogenous estrogen.

SMILES	Ki (aromatase enzyme [1])	ratio of the Ki values (AT concentration relative to ATD for the same effect) (aromatase enzyme [2])
C[C@]12CCC(=O)C=C1C(=O)C[C@@H]1[C@@H]2CC[C@]2(C)C(=O)CC[C@@H]12 [AT, androst-4-ene-3,6,17-trione]	430 nM	
C[C@]12C=CC(=O)C=C1C=C[C@@H]1[C@@H]2CC[C@]2(C)C(=O)CC[C@@H]12 [ATD, 1,4,6-androstatriene-3,17-dione]		2.39 times
